Tests used:
[1] = test system: IL-1 gene expression in LPS induced synovial fibroblast (SF) cells; test: IL-1 gene expression relative to GAPDH in LPS induced synovial fibroblast cells (RT-PCR); assay type: cell-based; conditions: 24 hours
Experimental: Experiments were conducted to evaluate the effect of particular phytochemical compositions provided by the present disclosure on IL-1 gene expression in specified cells found within a body of a living organism. The cells used for the experiments described in example one are lipopolysaccharide (LPS) induced synovial fibroblast (SF) cells. The SF cells were isolated from synovium tissue (also referred to as synovial tissue) using standard cell isolation techniques or methods known to a person of ordinary skill in the art. In addition, LPS is obtained from a commercial source, for example Sigma-Aldrich Co. It is understood by a person having ordinary skill in the art that the SF cells may be substituted with other immune cells found within the body, for example peripheral blood mononuclear cells, lymphocytes, monocytes, and macrophages, which can be isolated using techniques or methods known to a person of ordinary skill in the art. […]
The amount or level of IL-1 gene expression in the SF cells was measured or determined using methods or techniques known to a person having ordinary skill in the relevant art. In example 1, Real-Time PCR (RT-PCR) was used for quantifying the amount of IL-1 gene expression in the SF cells. IL-1beta or IL-1β specific primers were used during RT-PCR, thereby facilitating the quantification of IL-1β gene expression in the SF cells. […]

[2] = test system: cartilage tissue cultures exposed to IL-1 (ECM degradation, HA release); test: HA release from IL-1 exposed cartilage tissue cultures (ELISA); assay type: cell-based; conditions: relative to control culture
Experimental: Experiments were conducted to evaluate the anti-inflammatory effects of combinations of particular phytochemical compositions provided by the present disclosure with known substances, compositions, or drugs that are associated with an anti-inflammatory effect and/or an anti-degenerative or tissue integrity preservation effect in connective tissue. In the context of the present disclosure, the term “connective tissue” encompasses connective tissue proper (e.g., dense or fibrous connective tissue), as well as specialized connective tissue such as cartilage or bone. More specifically, experiments were conducted to evaluate the anti-inflammatory, anti-degenerative, and/or structural preservation effects of a combination of particular phytochemical compositions provided by the present disclosure with glucosamine sulfate. In addition, the experiments compared the anti-inflammatory/anti-degenerative effects of the combination of particular sesamin or sesamin-based phytochemical compositions provided by the present disclosure plus glucosamine sulfate, versus the anti-inflammatory/anti-degenerative effects of glucosamine sulfate alone.
Hyaluronic acid (HA) is an important component of the extracellular matrix (ECM), as well as a major component of synovial fluid. HA is present in articular cartilage, and contributes to cartilage resilience. It is known that IL-1 stimulates the synthesis and activity of matrix metalloproteinases and other enzymes that are associated with cartilage degradation as well as rheumatoid arthritis and osteoarthritis. A set of experimental cartilage tissue cultures were prepared using cartilage tissue samples containing HA within their ECMs. As further detailed below, the experimental cartilage tissue cultures selectively incorporated glucosamine sulfate alone; sesamin alone; or a combination of glucosamine sulfate and sesamin. Additionally, a control cartilage tissue culture remained unexposed to either of sesamin or glucosamine sulfate.
ECM degradation was induced in the experimental and control cartilage tissue cultures by exposing the cultures to IL-1. A measure or estimate of a cartilage tissue anti-degenerative effect was defined in accordance with an amount of HA that an experimental cartilage tissue culture released into the tissue culture medium relative to a reference or baseline amount of HA that was released into the tissue culture medium by the control cartilage tissue culture. More particularly, a percentage reduction in the amount of HA released into the tissue culture medium by a given experimental cartilage tissue culture relative to the amount of HA released into the tissue culture medium by the control cartilage tissue culture, indicated below as “Percentage (%) HA Reduction”, conveys or indicates the magnitude of an anti-degenerative or structural preservation effect provided by the experimental cartilage tissue culture under consideration. A corresponding measure or estimate of percentage (%) HA retention by cartilage tissue can also be defined based upon the experimental results. The amount or level of HA present in a given tissue culture medium was detected using ELISA, in a manner that can be understood by one of ordinary skill in the art.

c1cc2c(cc1[C@H]1OC[C@H]3[C@@H]1CO[C@@H]3c1ccc3c(c1)OCO3)OCO2 [sesamin]
decrease in IL-1 gene expression relative to GAPDH ([1]; 0.025 mM sesamin (culture 4), compared to control culture 3 (LPS 0.2 μg/ml + DMSO)): approximately 20%
decrease in IL-1 gene expression relative to GAPDH ([1]; 1.0 mM sesamin (culture 9), compared to control culture 2 (LPS 0.2 μg/ml)): approximately 65%
Percentage (%) HA Reduction ([2]; sesamin 0.25 uM (88.6 ug/ml)): approximately 0%
Percentage (%) HA Reduction ([2]; sesamin 0.25 uM (88.6 ug/ml), listed as Sesamin): 0%
Percentage (%) HA Reduction ([2]; sesamin 0.50 uM (177.2 ug/ml)): approximately 4%
Percentage (%) HA Reduction ([2]; sesamin 0.50 uM (177.2 ug/ml), listed as Sesamin): 4%
Percentage (%) HA Reduction ([2]; sesamin 1.00 uM): approximately 43%
Percentage (%) HA Reduction ([2]; sesamin 1.00 uM, listed as Sesamin): 56%

Source: patent publication US20170333390A1, “PHYTOCHEMICAL COMPOSITIONS INCLUDING SESAMIN FOR ANTI-INFLAMMATORY, ANTI-CYTOKINE STORM, AND OTHER USES” (CHIANG MAI UNIVERSITY, priority 2009, published 2017)
